Reference: patent publication US20240252500A1, “Treatment of chronic pruritic dermatoses” (CymaBay Therapeutics, Inc., priority 2023, published 2024)
Like-named read-outs stand apart in the source and are kept apart here.

How the values were obtained:
IL-31 [1] = details: NASH patients; cited from earlier work
[2] = tested on: atopic dermatitis-associated pruritus; experiment: Topical ointment treatment of pruritic atopic dermatitis; assay type: in vivo, human
Description: (§1) Subjects are permitted their usual other medications. […] At each visit, the subjects are assessed for their disease symptoms and biomarkers, and assessed for pruritus. The subjects also maintain health diaries, which are reviewed at each visit.
Adult subjects with pruritic atopic dermatitis are treated topically with an ointment containing 1, 2, 5, or 10% of mavodelpar. Subjects are permitted their usual other medications. The subjects are assessed before the study, and at intervals during the study, such as every 4 weeks during the study and 4 weeks after the last dose of the mavodelpar therapy, for safety and pharmacodynamic evaluations. At each visit, the subjects are assessed for their disease symptoms and biomarkers, and assessed for pruritus. The subjects also maintain health diaries, which are reviewed at each visit.

[3] = animal models and humans; cited from earlier work
[4] = molecular target: T1, peroxisome proliferator-activated receptor-γ (Homo sapiens, UniProt P37231); details: Alzheimer's Drug Discovery Foundation Cognitive Vitality Report, November 2021; read-out: EC50 for PPARγ; cited from earlier work
T1 sequence (P37231 1-505): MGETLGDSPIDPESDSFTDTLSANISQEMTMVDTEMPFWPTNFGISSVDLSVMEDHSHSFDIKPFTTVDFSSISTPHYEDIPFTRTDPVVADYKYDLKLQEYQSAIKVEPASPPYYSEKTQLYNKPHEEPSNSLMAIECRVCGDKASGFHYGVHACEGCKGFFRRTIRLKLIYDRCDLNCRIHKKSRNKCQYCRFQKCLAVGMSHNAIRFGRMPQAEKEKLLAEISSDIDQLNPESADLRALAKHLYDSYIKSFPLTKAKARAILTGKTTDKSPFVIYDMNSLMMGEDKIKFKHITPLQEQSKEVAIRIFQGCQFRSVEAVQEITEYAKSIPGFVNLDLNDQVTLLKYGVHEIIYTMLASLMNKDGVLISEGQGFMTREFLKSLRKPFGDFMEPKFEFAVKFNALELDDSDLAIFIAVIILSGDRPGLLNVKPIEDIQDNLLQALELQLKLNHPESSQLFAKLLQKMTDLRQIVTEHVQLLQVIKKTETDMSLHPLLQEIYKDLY

[5] = several animal models of type 2 diabetes; cited from earlier work
[6] = tested on: atopic dermatitis-associated pruritus; experiment: Oral treatment of pruritic atopic dermatitis; assay type: in vivo, human
Description: as §1
Adult subjects with pruritic atopic dermatitis are treated orally with doses of 5, 10, 25, 50, and 100 mg/day of mavodelpar. Subjects are permitted their usual other medications. The subjects are assessed before the study, and at intervals during the study, such as every 4 weeks during the study and 4 weeks after the last dose of the mavodelpar therapy, for safety and pharmacodynamic evaluations. At each visit, the subjects are assessed for their disease symptoms and biomarkers, and assessed for atopic dermatitis-associated pruritus. The subjects also maintain health diaries, which are reviewed at each visit.

[7] = early clinical studies; cited from earlier work
[8] = molecular target: T2, peroxisome proliferator-activated receptor-α (Homo sapiens, UniProt Q07869); details: Alzheimer's Drug Discovery Foundation Cognitive Vitality Report, November 2021; read-out: EC50 for PPARα; cited from earlier work
T2 sequence (Q07869 1-468): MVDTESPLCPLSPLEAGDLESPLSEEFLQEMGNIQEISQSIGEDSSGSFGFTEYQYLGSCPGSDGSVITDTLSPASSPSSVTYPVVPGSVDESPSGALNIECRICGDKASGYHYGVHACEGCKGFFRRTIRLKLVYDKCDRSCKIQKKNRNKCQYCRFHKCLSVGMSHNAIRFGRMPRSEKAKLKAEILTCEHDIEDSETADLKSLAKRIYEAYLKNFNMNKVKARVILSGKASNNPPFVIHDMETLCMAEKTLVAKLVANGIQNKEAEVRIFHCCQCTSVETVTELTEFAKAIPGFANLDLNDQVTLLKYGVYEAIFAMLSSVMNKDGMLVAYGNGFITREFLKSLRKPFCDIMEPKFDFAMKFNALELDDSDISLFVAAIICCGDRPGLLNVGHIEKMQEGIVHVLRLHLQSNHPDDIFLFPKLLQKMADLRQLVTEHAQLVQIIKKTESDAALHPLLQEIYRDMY

human IL-31 [9] = details: humanized liver murine model; cited from earlier work
human IL-31 [10] = experiment: Serum human IL-31 in PXB mice (humanized liver); assay type: in vivo, PXB mouse; details: 2 h after last dose, day 0 0.13 pg/mL
Text: The PXB mouse (PhoenixBio Co., Ltd., Higashi-Hiroshima, Japan) is a chimeric mouse with a humanized liver, produced by transplanting human hepatocytes into the albumin enhancer/promoter-urokinase-type plasminogen activator complementary DNA transgenic/SCID mouse. The mouse has its liver repopulated by human hepatocytes at a ratio of more than 70%, typically 85-90%, as assessed by measuring the ratio of human albumin to mouse albumin in the blood. The transplanted human hepatocytes express a variety of human messenger RNA (mRNA) and proteins, in a similar manner to those of the normal human liver. […] The study was conducted at PhoenixBio. Male PXB mice aged about 25 weeks, kept in single animal cages and fed CRF1 mouse chow supplemented with AS primate chow for vitamin C supplementation (both from Oriental Yeast Co., Ltd., Tokyo, Japan), were randomized into groups (10/group) based on mean values for body weight and blood human albumin concentration. […] Two hours after the last dose, each mouse was anesthetized with isoflurane, at least 400 μL blood was collected by cardiac puncture, and the mouse sacrificed by exsanguination. The blood samples were left to coagulate at room temperature for at least 5 minutes, then centrifuged at 13200×g for 3 minutes at 4° C. to obtain serum, which was analyzed for human IL-31.

[11] = PBC patients, 12 months, cited from earlier work
[12] = molecular target: T2, peroxisome proliferator-activated receptor-α; experiment: PPARα agonism / selectivity; assay type: biochemical
[13] = Oral bioavailability of seladelpar; details: in vivo
IL-31 [14] = experiment: Serum IL-31 in PBC subjects, phase 3 study (ENHANCE, NCT03602560); assay type: in vivo, human; details: before treatment
Text: The trial subjects in this phase 3 study were adult, male or female, with a diagnosis of PBC. Exclusion criteria included AST or ALT≥3×ULN, total bilirubin (TBIL)≥2×ULN, autoimmune hepatitis or a history of chronic viral hepatitis, PSC, the current use of fibrates or simvastatin, the use of colchicine, methotrexate, azathioprine, or systemic steroids in the previous two months, the use of an experimental treatment for PBC, and the use of an experimental or unapproved immunosuppressant. […] Serum IL-31 and its correlation with patient-reported pruritus numerical rating scale (NRS, 0-10) were assessed.

CD4 T cells = experiment: IL-31 production by CD4 T cells under Th2-promoting conditions; assay type: cell-based, human; details: both donors, both promoters; p<0.0001, Mann-Whitney test
Description: CD4 T cells were enriched from peripheral blood mononuclear cells collected from two normal healthy donors, using the EasySep™ Human CD4+ T Cell Isolation Kit ([…] Technologies). 100,000 CD4 T cells were seeded in a U-bottom 96-well-plate well, and cultured in Th2-promoting conditions promoted by IL-4 or IL-33. […] On day 5 of culture, the anti-CD3/CD28 beads were diluted by adding 150 μL TCM. From days 5 to 13, the cells were cultured in the presence of the same reagents as for days 1 to 4 plus 50 ng/mL IL-2; and the cell culture medium was renewed every 2-3 days by a change of 50% volume of the medium. On day 13 or day 14, the expanded T cells in an individual well were split to four to six wells of 96-well-plate wells; and 5 ng/mL phorbol myristate acetate and 500 ng/mL ionomycin were added for 3 days to re-activate the T cells. The IL-31 concentration in the culture medium of each well was determined using the V-PLEX Human IL-31 Kit (Meso Scale Diagnostics, LLC; Rockville, MD, USA).

[15] = Seladelpar oral studies in primary biliary cholangitis; assay type: in vivo, human

O=C(O)c1ccnc(N2CC(O)(c3ccc(OCc4c(-c5c(Cl)cccc5Cl)noc4C4CC4)cc3Cl)C2)c1 [cilofexor]
effect on IL-31 (IL-31 [1]): increased IL-31

Cc1cc(OC/C=C(/c2ccc(F)cc2)c2ccc(C#CCN3CCOCC3)cc2)ccc1OCC(=O)O [mavodelpar, (4-{[(2E)-3-(4-fluorophenyl)-3-{4-[3-(morpholin-4-yl)prop-1-yn-1-yl]phenyl}prop-2-en-1-yl]oxy}-2-methylphenoxy)acetic acid]
atopic dermatitis-associated pruritus ([2]; ointment containing 1, 2, 5 or 10% mavodelpar): improvement in their atopic dermatitis-associated pruritus | high-density lipoprotein cholesterol [3]: significant increase in high-density lipoprotein cholesterol | low-density lipoprotein cholesterol and triglycerides [3]: lowering of low-density lipoprotein cholesterol and triglycerides | EC50 [4]: > 10 µM | anti-diabetic effect [5]: anti-diabetic effect | atopic dermatitis-associated pruritus ([6]; oral 5, 10, 25, 50 and 100 mg/day mavodelpar): improvement in their atopic dermatitis-associated pruritus | tolerability [7]: well tolerated | EC50 [8]: > 10 µM

CC[C@H]1[C@@H](O)[C@@H]2[C@H](CC[C@]3(C)[C@@H]([C@H](C)CCC(=O)O)CC[C@@H]23)[C@@]2(C)CC[C@@H](O)C[C@@H]12 [obeticholic acid]
IL-31 mRNA expression in human hepatocytes (human IL-31 [9]): increased | serum human IL-31 concentration (human IL-31 [10]; gavage 10 mL/kg of 1 mg/mL once/day for 19 days): 3.7 pg/mL | patients reporting severe pruritus ([11]; OCALIVA 10 mg arm): 23% | patients reporting severe pruritus ([11]; OCALIVA titration arm): 19%

CCO[C@H](COc1ccc(C(F)(F)F)cc1)CSc1ccc(OCC(=O)O)c(C)c1 [seladelpar, [4-({(2R)-2-ethoxy-3-[4-(trifluoromethyl)phenoxy]propyl}sulfanyl)-2-methylphenoxy]acetic acid]
atopic dermatitis-associated pruritus ([2]; ointment containing 1, 2, 5 or 10% seladelpar): improvement in their atopic dermatitis-associated pruritus | specificity for PPARδ compared with PPARα [12]: > 600 fold | oral bioavailability [13]: high | atopic dermatitis-associated pruritus ([6]; oral 5, 10, 25 and 50 mg/day seladelpar): improvement in their atopic dermatitis-associated pruritus | mean serum IL-31, baseline (IL-31 [14]; 5 mg/day oral as L-lysine dihydrate salt): 3.8 pg/mL | mean serum IL-31, baseline (IL-31 [14]; 10 mg/day oral as L-lysine dihydrate salt): 4.2 pg/mL | IL-31 production vs DMSO control (CD4 T cells): reduced IL-31 production | serum human IL-31 concentration (human IL-31 [10]; gavage 10 mL/kg of 10 mg/mL once/day for 19 days): 0.19 pg/mL | efficacy in PBC ([15]; oral 5, 10, 50 and 200 mg/day): effective in the treatment of PBC | effect on cholestatic pruritus (exacerbation) ([15]; oral 5, 10, 50 and 200 mg/day in PBC): not to exacerbate cholestatic pruritus | efficacy in cholestatic pruritus associated with PBC ([15]; oral 5 and 10 mg/day): effective in the treatment of cholestatic pruritus
